Reference: US9289496B2, “Lipid dipeptide and gel” (Nissan Chemical Industries, Ltd., priority 2008, dated 2016)
Residues, ends and D or L forms follow the SMILES beside them.

How the values were obtained:
Assay type in all cases: physicochemical
[1] = Evaluation of gelation of free N-palmitoyl-Gly-His in water and at various pHs; parameters: key: a sample that formed a gel is shown as “O”; a sample that formed a sol is shown as “X”; a sample without evaluation is shown as “-”
Procedure: Free N-palmitoyl-Gly-His prepared in Example 4 was placed into a screw tube (Maruemu No. 1, manufactured by Maruemu Corp.). Each of the various solutions shown in Table 4 was added into the screw tube so as to have a free N-palmitoyl-Gly-His (also called Pal-GH (free)) concentration of 0.1%, 0.2%, 0.5%, 1%, or 2% (w/v). The mixture was heated at 100° C. with a constant temperature heat block (manufactured by Nippon Genetics Co., Ltd.), and then allowed to stand at room temperature.
In Table, a sample that formed a gel is shown as “O”, a sample that formed a sol is shown as “X”, and a sample without evaluation is shown as “-”.

[2] = Evaluation of gelation of free N-palmitoyl-Gly-His in glycerin solution
Procedure: Free N-palmitoyl-Gly-His prepared in Example 4 was placed into a screw tube (Maruemu No. 1, manufactured by Maruemu Corp.). Each of the glycerin solutions having various concentrations shown in Table 5 was added into the screw tube so as to have a free N-palmitoyl-Gly-His concentration of 0.2%, 0.25%, 0.5%, or 1% (w/v). The mixture was heated at 100° C. with a constant temperature heat block (manufactured by Nippon Genetics Co., Ltd.), and then allowed to stand at room temperature.
In Table, a sample that formed a gel is shown as “O”, a sample that partially formed a gel is shown as “A”, and a sample without evaluation is shown as “-”.

[3] = Preparation of film from sheet-shaped gel; conditions: 0.5% (w/v); 30%, 20% and 10% glycerin aqueous solutions; dissolved at 80° C.
Procedure: Into a screw tube (Maruemu No. 3, manufactured by Maruemu Corp.), 3 mg of N-palmitoyl-Gly-His.TFA salt prepared in Example 1 was placed. Into the screw tube, 0.6 ml of Japanese Pharmacopoeia purified water (Kyoei Pharmaceutical Industries, Ltd.) was added so as to have a concentration of 0.5% (w/v). The whole was heated at 105° C. for 5 minutes, and then allowed to stand at room temperature to prepare a gel of 0.5% N-palmitoyl-Gly-His.TFA salt.
Into the gel, 2 ml of Japanese Pharmacopoeia purified water (Kyoei Pharmaceutical Industries, Ltd.) was further added and sheet formation was observed from a wide view for 72 hours.
Using 10 mg of free N-palmitoyl-Gly-His, each 2.0 mL of 30%, 20%, and 10% glycerin aqueous solutions was added so as to become a 0.5% (w/v) solution, and the mixture solution was heated and dissolved at 80° C. The solution was placed in a glass petri dish having an inner diameter of 2.2 cm and allowed to cool at room temperature. […] Then, the obtained gel was transferred onto a glass substrate.

[4] = Gelation test when adding methylparaben; conditions: aqueous solution of 0.2 wt % methylparaben; 0.25, 0.5 or 1.0 wt % tested
Procedure: An aqueous solution of 0.2 wt % methylparaben was prepared, and into the solution, free N-palmitoyl-Gly-His prepared in Example 4 was added so as to have a concentration of 0.25, 0.5, or 1.0 wt % to prepare a suspended mixture solution. Each mixture solution was heated at 95 to 99° C. until dissolved (for 6 to 25 minutes), and then allowed to cool to room temperature.

[5] = Usable mediums: solubility and gel formation, conventional art vs palmitoyl-Gly-His; conditions: wide variety of mediums including 50 mM citrate buffer pH 5, 50 mM acetate buffer pH 5, ethanol/water with 80% or more ethanol
[6] = Gelation of free N-palmitoyl-Gly-His in 65% (w/w) propylene glycol aqueous solution containing lactic acid and potassium lactate; conditions: 65% (w/w) propylene glycol aqueous solution with 5% (w/w) potassium lactate:lactic acid (95:5)
Procedure: (§1) Free N-palmitoyl-Gly-His (25 mg) obtained in Example 4 was placed in a screw tube (Maruemu Corp., No. 7). Sixty-five percent (w/w) propylene glycol aqueous solution was added so as to have a concentration of 0.25% (w/v), and a mixture of potassium lactate:lactic acid (95:5) was further added so as to have a concentration of 5% (w/w) with respect to the whole solution. The mixture was heated with a dry bath incubator (manufactured by First Gene) at 75° C. for 10 minutes. The obtained solution was transferred into a spray vial (Maruemu Corp., No. 3L), and allowed to cool to room temperature.
as §1, with “N-palmitoyl-Gly-His (80” for “N-palmitoyl-Gly-His (25”, “placed into” for “placed in”, “of 0.2%” for “of 0.25%”, “at 93°” for “at 75°”, “for 5” for “for 10”

Which Gelation ([1]; 0.1% (w/v), phosphate buffer solution pH 3) does the source give for `CCCCCCCCCCCCCCCC(=O)NCC(=O)N[C@@H](Cc1c[nH]cn1)C(=O)O` [Example 4, N-Palmitoyl-Gly-His] (HELM PEPTIDE1{[CCCCCCCCCCCCCCCC(=O)[*:2]].G.H}$$$$V2.0) here?
The Gelation was “◯”.

What about the Gelation ([1]; 0.1% (w/v), phosphoric acid aqueous solution pH 2) of the same compound?
The Gelation was “◯”.

And the Gelation ([1]; 0.1% (w/v), water)?
The Gelation was “X”.

And the Gelation ([1]; 0.2% (w/v), phosphate buffer solution pH 3)?
Its Gelation is “◯”.

What about the Gelation ([1]; 0.2% (w/v), phosphate buffer solution pH 5) of the same compound?
Its Gelation is “◯”.

What about the Gelation ([1]; 0.2% (w/v), phosphate buffer solution pH 6) of the same compound?
Its Gelation is “◯”.

And the Gelation ([1]; 0.2% (w/v), phosphoric acid aqueous solution pH 2)?
Its Gelation is “◯”.

And the Gelation ([1]; 0.2% (w/v), water)?
Its Gelation is “X”.

What about the Gelation ([1]; 0.5% (w/v), phosphate buffer solution pH 3) of the same compound?
Its Gelation is “◯”.

What about the Gelation ([1]; 0.5% (w/v), phosphate buffer solution pH 5) of the same compound?
The Gelation was “◯”.

And the Gelation ([1]; 0.5% (w/v), phosphate buffer solution pH 6)?
The Gelation was “◯”.

And the Gelation ([1]; 0.5% (w/v), phosphate buffer solution pH 7.5)?
The Gelation was “◯”.

And the Gelation ([1]; 0.5% (w/v), phosphate buffer solution pH 9)?
Its Gelation is “X”.

What about the Gelation ([1]; 0.5% (w/v), phosphate buffer solution pH 10) of the same compound?
The Gelation was “X”.

And the Gelation ([1]; 0.5% (w/v), phosphoric acid aqueous solution pH 2)?
The Gelation was “◯”.

And the Gelation ([1]; 0.5% (w/v), water)?
Its Gelation is “X”.

What about the Gelation ([1]; 1.0% (w/v), phosphate buffer solution pH 5) of the same compound?
The Gelation was “◯”.

And the Gelation ([1]; 1.0% (w/v), phosphate buffer solution pH 6)?
Its Gelation is “◯”.

And the Gelation ([1]; 1.0% (w/v), phosphate buffer solution pH 7.5)?
The Gelation was “◯”.

What about the Gelation ([1]; 1.0% (w/v), phosphate buffer solution pH 9) of the same compound?
The Gelation was “◯”.

What about the Gelation ([1]; 1.0% (w/v), phosphate buffer solution pH 10) of the same compound?
The Gelation was “◯”.

What about the Gelation ([1]; 1.0% (w/v), water) of the same compound?
Its Gelation is “◯”.

What about the Gelation ([1]; 2.0% (w/v), phosphate buffer solution pH 9) of the same compound?
The Gelation was “◯”.

What about the Gelation ([1]; 2.0% (w/v), phosphate buffer solution pH 10) of the same compound?
Its Gelation is “◯”.

And the Gelation ([1]; 2.0% (w/v), water)?
Its Gelation is “◯”.

And the Gelation ([2]; 0.2% (w/v), mass fraction glycerin/water + glycerin 0.1)?
Its Gelation is “Δ”.

What about the Gelation ([2]; 0.2% (w/v), mass fraction glycerin/water + glycerin 0.3) of the same compound?
The Gelation was “Δ”.

What about the Gelation ([2]; 0.2% (w/v), mass fraction glycerin/water + glycerin 0.5) of the same compound?
The Gelation was “◯”.

What about the Gelation ([2]; 0.2% (w/v), mass fraction glycerin/water + glycerin 0.6) of the same compound?
Its Gelation is “◯”.

And the Gelation ([2]; 0.2% (w/v), mass fraction glycerin/water + glycerin 0.7)?
The Gelation was “◯”.

What about the Gelation ([2]; 0.25% (w/v), mass fraction glycerin/water + glycerin 0.1) of the same compound?
Its Gelation is “◯”.

What about the Gelation ([2]; 0.25% (w/v), mass fraction glycerin/water + glycerin 0.3) of the same compound?
The Gelation was “◯”.

And the Gelation ([2]; 0.25% (w/v), mass fraction glycerin/water + glycerin 0.4)?
Its Gelation is “◯”.

And the Gelation ([2]; 0.25% (w/v), mass fraction glycerin/water + glycerin 0.5)?
The Gelation was “◯”.

What about the Gelation ([2]; 0.25% (w/v), mass fraction glycerin/water + glycerin 0.6) of the same compound?
Its Gelation is “◯”.

What about the Gelation ([2]; 0.25% (w/v), mass fraction glycerin/water + glycerin 0.7) of the same compound?
Its Gelation is “◯”.

What about the Gelation ([2]; 0.5% (w/v), mass fraction glycerin/water + glycerin 0.1) of the same compound?
Its Gelation is “◯”.

What about the Gelation ([2]; 0.5% (w/v), mass fraction glycerin/water + glycerin 0.3) of the same compound?
The Gelation was “◯”.

What about the Gelation ([2]; 0.5% (w/v), mass fraction glycerin/water + glycerin 0.4) of the same compound?
The Gelation was “◯”.

What about the Gelation ([2]; 0.5% (w/v), mass fraction glycerin/water + glycerin 0.5) of the same compound?
The Gelation was “◯”.

What about the Gelation ([2]; 0.5% (w/v), mass fraction glycerin/water + glycerin 0.6) of the same compound?
Its Gelation is “◯”.

And the Gelation ([2]; 0.5% (w/v), mass fraction glycerin/water + glycerin 0.7)?
The Gelation was “◯”.

What about the Gelation ([2]; 1.0% (w/v), mass fraction glycerin/water + glycerin 0.1) of the same compound?
Its Gelation is “◯”.

And the Gelation ([2]; 1.0% (w/v), mass fraction glycerin/water + glycerin 0.3)?
Its Gelation is “◯”.

And the Gelation ([2]; 1.0% (w/v), mass fraction glycerin/water + glycerin 0.4)?
The Gelation was “◯”.

What about the Gelation ([2]; 1.0% (w/v), mass fraction glycerin/water + glycerin 0.5) of the same compound?
Its Gelation is “◯”.

What about the Gelation ([2]; 1.0% (w/v), mass fraction glycerin/water + glycerin 0.6) of the same compound?
The Gelation was “◯”.

What about the Gelation ([2]; 1.0% (w/v), mass fraction glycerin/water + glycerin 0.7) of the same compound?
The Gelation was “◯”.

What about the Gelation [3] of the same compound?
Its Gelation is “gelation was observed in each case”.

And the “Concentration at which a transparent gel was obtained” value [4]?
Its value is at least 0.5 wt %.

What about the Gel formation [5] of the same compound?
Its Gel formation is “can form a gel”.

What about the Gelation ([6]; 0.2% (w/v), heated 93° C., 5 minutes) of the same compound?
The Gelation was “gelation”.

And the Gelation ([6]; 0.25% (w/v), heated 75° C., 10 minutes)?
The Gelation was “gelation”.
